According to the CheMixHub drug solubility set:

Assay: xn = mol fraction of the nth substance listed, in the solute-free solvent

CC1CCC2(C(=O)O)CCC3(C)C(=CCC4C5(C)CCC(O)C(C)(C)C5CCC43C)C2C1C (stereo not drawn) + CC(C)O + O
solubility (g/100 g solution)
Settings	293.15 K	298.15 K	303.15 K	308.15 K	313.15 K	318.15 K	323.15 K	328.15 K	333.15 K
x2 = 0.0908	0.00219	0.00363	0.00394	0.00575	0.00586	0.00613	0.00653	0.00668	0.0109
x2 = 0.1389	0.00363	0.00474	0.00741	0.00959	0.0147	0.0158	0.0187	0.036	0.0388
x2 = 0.1969	0.0293	0.0352	0.0473	0.0614	0.0752	0.0821	0.0985	0.111	0.13
x2 = 0.2681	0.0944	0.118	0.13	0.142	0.158	0.22	0.239	0.282	0.33
x2 = 0.3575	0.146	0.195	0.236	0.284	0.359	0.387	0.493	0.514	0.656
x2 = 0.4734	0.171	0.276	0.328	0.378	0.529	0.672	1.01	1.16	1.21

O=C(O)c1ccc(-n2nc(-c3ccccc3O)nc2-c2ccccc2O)cc1 + CC(O)CO + CCO
298.15 K
Settings	solubility (g/100 g solution)
x2 = 0.06303	11.6
x2 = 0.1315	12.2
x2 = 0.206	12.8
x2 = 0.2875	13.4
x2 = 0.3771	13.7
x2 = 0.4759	13.4
x2 = 0.5855	12.4
x2 = 0.7077	11.2
x2 = 0.8449	10.1

Cl.c1ccc2c(CC3=NCCN3)cccc2c1 + CO + CCOC(C)=O
solubility (g/100 g solution)
Settings	278.15 K	283.15 K	288.15 K	293.15 K	298.15 K	303.15 K	308.15 K	313.15 K	318.15 K	323.15 K
x2 = 0.234	0.0388	0.0424	0.0488	0.0564	0.0653	0.0746	0.0856	0.0943	0.107	0.124
x2 = 0.4074	0.414	0.448	0.483	0.536	0.585	0.641	0.701	0.757	0.832	0.9
x2 = 0.5409	1.28	1.46	1.64	1.85	2.05	2.3	2.54	2.8	3.09	3.43
x2 = 0.647	2.35	2.79	3.18	3.62	4.14	4.79	5.44	6	6.94	7.75
x2 = 0.7342	2.92	3.55	4.1	4.91	5.54	6.21	7.05	7.84	8.87	9.75
x2 = 0.8048	4.02	4.75	5.56	6.6	7.64	8.62	10.1	11.2	12.5	14
x2 = 0.8651	4.96	5.72	6.88	8.2	9.51	11.3	12.9	14.3	15.7	17.4
x2 = 0.9166	5.87	6.98	8.13	9.66	11.2	13.1	15	17.1	19	20.8
x2 = 0.9612	6.37	7.47	8.84	10.6	12.3	14.4	16.6	18.9	21.1	23.5
